# Assay results published in patent publication US9301923B2, “Lipids, lipid compositions, and methods of using them” (NOVARTIS AG, priority 2009, dated 2016).
# Read-outs that look alike come from different tables or passages of the source.
# Key:
# [1] = tested on: Factor VII; assay: Factor VII activity assay, in vivo liver delivery of FVII siRNA LNP; parameters: species or system mouse; conditions: for FVII inhib %: ~48 h; for in vivo Factor VII inhibition: formulation containing the cationic lipid, RNAi construct specific to Factor VII, liver
# Outline: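 Female CD-1 mice (~25 g) given a single i.v. tail-vein dose of FVII siRNA in LNPs (cationic, stealth, neutral lipids), dosed as mg siRNA/kg. Plasma collected ~48 h post-injection; FVII activity read against a standard curve from pooled vehicle-control plasma.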
# [2] = Particle size and PDI by dynamic light scattering (Malvern Zetasizer); type: physicochemical
# Outline: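 Nanoparticles diluted in PBS to a count rate of about 200-400 kcts and measured by dynamic light scattering; size given as intensity-weighted average diameter, with polydispersity index from the same measurement.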
# [3] = pKa of the lipid by TNS fluorescence; type: physicochemical
# Protocol: Unless explicitly indicated otherwise, all pKas referred to herein are measured in water at standard temperature and pressure. Also, unless otherwise indicated, all references to pKa are references to pKa measured using the following technique.
# 2 mM solution of lipid in ethanol are prepared by weighing the lipid and then dissolving in ethanol.
# This is done with all eight buffers.
# Priority: Column priority • Carriage Speed: Normal • Auto read: Off
# The normalized fluorescence intensity vs. pH chart is then plotted in the Microsoft Excel software. The eight points are connected with a smooth line.
# The pKa determined using this method is precise to about 0.2 pKa units.
# [4] = dose 1 mg/kg siRNA i.v., lipid/no neutral lipid/CHOL/AVANTI 880150P 50/0/46/4, N/P 3.43
# [5] = dose 3 mg/kg siRNA i.v., lipid/DSPC/CHOL/AVANTI 880150P 50/28/18/4, N/P 3.43
# [6] = dose 3 mg/kg siRNA i.v., lipid/no neutral lipid/CHOL/AVANTI 880150P 50/0/46/4, N/P 3.43
# [7] = lipid/DSPC/CHOL/AVANTI 880150P 50/28/18/4, N/P 3.43
# [8] = lipid/no neutral lipid/CHOL/AVANTI 880150P 50/0/46/4, N/P 3.43
# [9] = dose 1 mg/kg siRNA i.v., lipid/no neutral lipid/CHOL/GM-020 NOF 60/0/36/4, N/P 3
# [10] = lipid/no neutral lipid/CHOL/GM-020 NOF 60/0/36/4, N/P 3
Structure (SMILES),pKa ([3]; pKa),"FVII inhib % [1, 9] [%]","Final size (nm) [2, 10] [nm]","PDI [2, 10]",also measured
CCCCC/C=C\C/C=C\CCCCCCCCOCC(CN1CCCCC1)OCCOCCNC(=O)O[C@H]1CC[C@@]2(C)C(=CCC3C2CC[C@@]2(C)C3CC[C@@H]2[C@H](C)CCCC(C)C)C1 (some centres unmarked) [E0054],6.58,–,–,–,"FVII inhib % ([1]; dose 1 mg/kg siRNA i.v., lipid/DSPC/CHOL/AVANTI 880150P 50/28/18/4, N/P 3.43): 57.5%; FVII inhib % [1, 4]: 63%; FVII inhib % [1, 5]: 97.8%; FVII inhib % [1, 6]: 98.9%; Final size (nm) [2, 7]: 103 nm; PDI [2, 7]: 0.2; Final size (nm) [2, 8]: 96 nm; PDI [2, 8]: 0.13"
CCCCC/C=C\C/C=C\CCCCCCCCOCC(CN1CCCCC1)OCCOCCOC(=O)CCC(=O)O[C@H]1CC[C@@]2(C)C(=CCC3C2CC[C@@]2(C)C3CC[C@@H]2[C@H](C)CCCC(C)C)C1 (some centres unmarked) [E0060],6.43,0.0,90.25,0.171,–
CCCCCCCC/C=C\CCCCCCCCOCC(CN1CCC(OC)C1)OCCO[C@H]1CC[C@@]2(C)C(=CC[C@H]3[C@@H]4CC[C@H]([C@H](C)CCCC(C)C)[C@@]4(C)CC[C@@H]32)C1 (some centres unmarked) [E0062],6.45,64.8,145.1,0.125,–
CCCCCCCC/C=C\CCCCCCCCOCC(CN1CCCCC1)OCCOCCO[C@H]1CC[C@@]2(C)C(=CC[C@H]3[C@@H]4CC[C@H]([C@H](C)CCCC(C)C)[C@@]4(C)CC[C@@H]32)C1 (some centres unmarked) [E0063],6.48,33.3,155.5,0.09,–
CCCCCCCC/C=C\CCCCCCCCOCC(CN1CCC(OC)C1)OCCOCCO[C@H]1CC[C@@]2(C)C(=CC[C@H]3[C@@H]4CC[C@H]([C@H](C)CCCC(C)C)[C@@]4(C)CC[C@@H]32)C1 (some centres unmarked) [E0064],6.83,37.2,169.2,0.144,–
CCCCCCCC/C=C\CCCCCCCCOCC(CN1CCCC1C)OCCOCCO[C@H]1CC[C@@]2(C)C(=CC[C@H]3[C@@H]4CC[C@H]([C@H](C)CCCC(C)C)[C@@]4(C)CC[C@@H]32)C1 (some centres unmarked) [E0065],6.8,41.1,153.01,0.148,–
CCCCCCCC/C=C\CCCCCCCCOCC(CN1CCCC1C)OCCO[C@H]1CC[C@@]2(C)C(=CC[C@H]3[C@@H]4CC[C@H]([C@H](C)CCCC(C)C)[C@@]4(C)CC[C@@H]32)C1 (some centres unmarked) [E0066],6.5,44.2,140.7,0.071,–
CCCCC/C=C\C/C=C\CCCCCCCCCCOCC(CN1CCOCC1)OCCO[C@H]1CC[C@@]2(C)C(=CC[C@H]3[C@@H]4CC[C@H]([C@H](C)CCCC(C)C)[C@@]4(C)CC[C@@H]32)C1 (some centres unmarked) [E0068],4.82,28.6,174.0,0.041,–
CCCCC/C=C\C/C=C\CCCCCCCCCCOCC(CN1CCCCC1)OCCO[C@H]1CC[C@@]2(C)C(=CC[C@H]3[C@@H]4CC[C@H]([C@H](C)CCCC(C)C)[C@@]4(C)CC[C@@H]32)C1 (some centres unmarked) [E0069],6.07,29,113.4,0.199,–
CCCCC/C=C\C/C=C\CCCCCCCCCCOCC(CN1CCCC1C)OCCO[C@H]1CC[C@@]2(C)C(=CC[C@H]3[C@@H]4CC[C@H]([C@H](C)CCCC(C)C)[C@@]4(C)CC[C@@H]32)C1 (some centres unmarked) [E0070],6.4,50.3,150.9,0.045,–
CCCCC/C=C\C/C=C\CCCCCCCCCCOCC(CN1CCCCC1)OCCOCCO[C@H]1CC[C@@]2(C)C(=CC[C@H]3[C@@H]4CC[C@H]([C@H](C)CCCC(C)C)[C@@]4(C)CC[C@@H]32)C1 (some centres unmarked) [E0071],6.47,30.8,188.2,0.151,–
CCCCCCCC/C=C\CCCCCCCCOCC(CN1CCCCC1)OCCCOCCCO[C@H]1CC[C@@]2(C)C(=CC[C@H]3[C@@H]4CC[C@H]([C@H](C)CCCC(C)C)[C@@]4(C)CC[C@@H]32)C1 (some centres unmarked) [E0078],5.72,51.9,122.6,0.098,–
CCCCC/C=C\C/C=C\CCCCCCCCOCC(CN1CCCCC1)OCCOCCOCCOCCO[C@H]1CC[C@@]2(C)C(=CC[C@H]3[C@@H]4CC[C@H]([C@H](C)CCCC(C)C)[C@@]4(C)CC[C@@H]32)C1 (some centres unmarked) [E0079],6.79,33.5,106.2,0.052,–
CCCCC/C=C\C/C=C\CCCCCCCCOCC(CN1CCCC1C)OCCOCCOCCO[C@H]1CC[C@@]2(C)C(=CC[C@H]3[C@@H]4CC[C@H]([C@H](C)CCCC(C)C)[C@@]4(C)CC[C@@H]32)C1 (some centres unmarked) [E0082],6.81,49.7,105.1,0.303,–
CCCCC/C=C\C/C=C\CCCCCCCCOCC(CN1CCCC1C)OCCOCCO[C@H]1CC[C@@]2(C)C(=CC[C@H]3[C@@H]4CC[C@H]([C@H](C)CCCC(C)C)[C@@]4(C)CC[C@@H]32)C1 (some centres unmarked) [E0083],6.79,55.6,113.4,0.199,–
CCCCC/C=C\C/C=C\CCCCCCCCOCC(CN1CCCC1C)OCCOCCOCCOCCO[C@H]1CC[C@@]2(C)C(=CC[C@H]3[C@@H]4CC[C@H]([C@H](C)CCCC(C)C)[C@@]4(C)CC[C@@H]32)C1 (some centres unmarked) [E0084],7.27,60.7,112.1,0.1,–
CCCCC/C=C\C/C=C\CCCCCCCCOCC(CN1CCC(OC)C1)OCCO[C@H]1CC[C@@]2(C)C(=CC[C@H]3[C@@H]4CC[C@H]([C@H](C)CCCC(C)C)[C@@]4(C)CC[C@@H]32)C1 (some centres unmarked) [E0087],6.38,69,119.2,0.148,–
CCCCCCCC/C=C\CCCCCCCCOCC(CN1CCCC1C)OCCCOCCCO[C@H]1CC[C@@]2(C)C(=CC[C@H]3[C@@H]4CC[C@H]([C@H](C)CCCC(C)C)[C@@]4(C)CC[C@@H]32)C1 (some centres unmarked) [E0094],5.91,36.3,115.5,0.076,–
CCCCC/C=C\C/C=C\CCCCCCCCOCOCC(CN1CCCCC1)OCCOCCO[C@H]1CC[C@@]2(C)C(=CC[C@H]3[C@@H]4CC[C@H]([C@H](C)CCCC(C)C)[C@@]4(C)CC[C@@H]32)C1 (some centres unmarked) [E0115],6.41,68.8,162.5,0.098,–
CCCCC/C=C\C/C=C\CCCCCCCCOCC(CN1CCC(C)(C)CC1)OCCOCCO[C@H]1CC[C@@]2(C)C(=CCC3C2CC[C@@]2(C)C3CC[C@@H]2[C@H](C)CCCC(C)C)C1 (some centres unmarked) [E0171],8.5,–,–,–,"FVII inhib % [1, 6]: 54.1%; in vivo Factor VII inhibition [1]: 40.8%; Final size (nm) [2, 8]: 90 nm; PDI [2, 8]: 0.18"
"CCCCC/C=C\C/C=C\CCCCCCCCOCC(CN(C)C)OCCOCCO[C@H]1CC[C@@]2(C)C(=CC[C@H]3[C@@H]4CC[C@H]([C@H](C)CCCC(C)C)[C@@]4(C)CC[C@@H]32)C1 (some centres unmarked) [E0172, reference compound]",6.7,–,–,–,"FVII inhib % [1, 5]: 21%; FVII inhib % [1, 6]: 40.8%; Final size (nm) [2, 7]: 170 nm; PDI [2, 7]: 0.181; Final size (nm) [2, 8]: 129 nm; PDI [2, 8]: 0.184; pKa [3]: 8.5"
"CCCCC/C=C\C/C=C\CCCCCCCCOCC(CN(C)C)OCCCCO[C@H]1CC[C@@]2(C)C(=CCC3C2CC[C@@]2(C)C3CC[C@@H]2[C@H](C)CCCC(C)C)C1 (stereo partly drawn) [E0173, 3-Dimethylamino-2-(Cholest-5-en-3-beta-oxybutan-4-oxy) -1-(cis,cis-9,12-octadecadienoxy)propane, reference compound]",6.73,–,–,–,"FVII inhib % [1, 4]: 87.4%; FVII inhib % [1, 5]: 90.9%; FVII inhib % [1, 6]: 98.5%; in vivo Factor VII inhibition [1]: 98.5%; Final size (nm) [2, 7]: 98 nm; PDI [2, 7]: 0.17; Final size (nm) [2, 8]: 76 nm; PDI [2, 8]: 0.16"
"CCCCC/C=C\C/C=C\CCCCCCCCCCC(CN(C)C)OC(=O)CCC(=O)O[C@H]1CC[C@@]2(C)C(=CCC3C2CC[C@@]2(C)C3CC[C@@H]2[C@H](C)CCCC(C)C)C1 (some centres unmarked) [E0174, reference compound]",5.15,–,–,–,"FVII inhib % [1, 5]: 63.2%; FVII inhib % [1, 6]: 3.5%; Final size (nm) [2, 7]: 117 nm; PDI [2, 7]: 0.23; Final size (nm) [2, 8]: 90 nm; PDI [2, 8]: 0.21"
